Patent US11096985B2, “Antimicrobial peptides, their variants and uses” (priority 2015, dated 2021)
Where a SMILES comes first, the peptide text is derived from it. [ ]: non-standard residue; d: D form.

Assays:
[1] = system: clinical strains of Acinetobacter baumannii; assay: MIC, clinical strains of Acinetobacter baumannii; type: cell-based; details: microdilution, Muller Hinton broth-cation adjusted, 0.02% BSA, 0.2% acetic acid
Method in brief: (§1)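 Clinical isolates at 5.0×10^5 cfu/ml in Mueller-Hinton broth (Potato dextrose broth for yeasts) were exposed to Chain peptides at 0.125–128 μg/ml by broth microdilution, 37 °C for 20–24 h. MIC was the lowest concentration with no visible growth.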

[2] = system: clinical strains of C. parapsilosis; assay: MIC, clinical yeast strains, C. parapsilosis; type: cell-based, Candida parapsilosis; design: unit: μg/ml
Method in brief: as §1

[3] = system: clinical strains of Enterobacter cloacae; assay: MIC, clinical strains of Enterobacter cloacae; type: cell-based; design: unit: μg/ml; details: microdilution, Muller Hinton broth-cation adjusted, 0.02% BSA, 0.2% acetic acid
Method in brief: as §1

[4] = system: clinical strains of Pseudomonas aeruginosa; assay: MIC, clinical strains of P. aeruginosa; type: cell-based; design: unit: μg/ml; details: microdilution, Muller Hinton broth-cation adjusted, 0.02% BSA, 0.2% acetic acid
Method in brief: as §1

[5] = system: clinical strains of Klebsiella pneumoniae; assay: MIC, clinical strains of K. pneumoniae; type: cell-based; design: unit: μg/ml; details: microdilution, Muller Hinton broth-cation adjusted, 0.02% BSA, 0.2% acetic acid
Method in brief: as §1

[6] = system: clinical strains of Candida albicans; assay: MIC, clinical yeast strains, Candida albicans; type: cell-based; design: unit: μg/ml
Method in brief: as §1

[7] = system: clinical strains of Serratia marcescens; assay: MIC, clinical strains of Serratia marcescens; type: cell-based; design: unit: µg/mL; details: microdilution, Muller Hinton broth-cation adjusted, 0.02% BSA, 0.2% acetic acid
Method in brief: as §1

[8] = system: clinical strains of Staphylococcus aureus; assay: MIC, clinical strains of S. aureus; type: cell-based; design: unit: μg/ml; details: microdilution, Muller Hinton broth-cation adjusted, 0.02% BSA, 0.2% acetic acid
Method in brief: as §1

[9] = system: clinical strains of Escherichia coli; assay: MIC, clinical strains of E. coli; type: cell-based; design: unit: μg/ml; details: microdilution, Muller Hinton broth-cation adjusted, 0.02% BSA, 0.2% acetic acid
Method in brief: as §1

[10] = system: clinical strains of C. glabrata; assay: MIC, clinical yeast strains, C. glabrata; type: cell-based, Candida glabrata; design: unit: μg/ml
Method in brief: as §1

[11] = system: clinical strains of Streptococcus pneumoniae; assay: MIC, clinical strains of Streptococcus pneumoniae; type: cell-based; design: unit: µg/mL; details: microdilution, Muller Hinton broth-cation adjusted, 0.02% BSA, 0.2% acetic acid
Method in brief: as §1

[12] = system: clinical strains of C. quillermondiae; assay: MIC, clinical yeast strains, C. quillermondiae; type: cell-based; details: C. quillermondiae clinical yeast strain 1
Method in brief: as §1

[13] = system: clinical strains of Acinetobacter johnsonii; type: cell-based; details: Acinetobacter johnsonii clinical strain 1; microdilution, Muller Hinton broth-cation adjusted, 0.02% BSA, 0.2% acetic acid
Description: Minimum inhibition concentrations (MICs) were determined against Escherichia coli (ATCC 25922), Staphylococcus aureus (ATCC 25923), Klebsiella pneumoniae (ATCC 10031) and Pseudomonas aeruginosa (ATCC 27853). Also clinical strains of E. coli, K. pneumoniae, E. cloacae, P. aeruginosa, Serratia marcescens, Proteus mirabilis, S. pneumoniae, Acinetobacter baumannii, A. johnsonii and S. aureus were used for MICs assays. Additionally, clinical strains of yeast including Candida albicans, C. glabrata, C. parapsilosis and C. quillermondiae were used. The susceptibility of these microorganisms to Chain peptides were determined using micro broth dilution assay. Colonies of the respective microorganism from Muller Hinton (MH) agar plates incubated overnight were suspended in MH broth media and final concentration of microorganism was adjusted to 5.0×10^5 cfu/ml. An aliquot of 10 μl of each Chain peptide, or gentamicin, tetracycline as reference antibiotics were added in differing concentrations along with 90 μl of bacterial suspension to 96 well polypropylene plates and incubated at 37° C. for 20 to 24 hours. Concentrations of Chain peptides and reference antibiotics ranged from 0.125 to 128 μg/ml and the MICs were recorded as the lowest concentration with no visual growth of bacteria. Similarly, antifungal MICs were tested in Potato dextrose broth.
Clinical strains of yeasts including Candida albicans, C. glabrata, C. parapsilosis and C. quillermondiae were also tested with the 12 Chain peptides. The minimum inhibitory concentration (MICs) varied between these peptides and are presented in Tables 4a, 4b, 4c and 5a, 5b, 5c. Peptides Chain 105, 201 and 308 are broad spectrum antimicrobials with MICs between 0.5-32 μg/ml against all the bacteria and yeasts tested, except Serratia marcescens and Proteus mirabilis, against which the MICs were between 64-128 μg/ml. Peptide Chain 306 has narrow spectrum activity against E.coli at 1 μg/ml and for the rest of the bacterial strains at >32 μg/ml (FIG. 10).

[14] = system: clinical strains of Proteus mirabilis; assay: MIC, clinical strains of Proteus mirabilis; type: cell-based; design: unit: µg/mL; details: microdilution, Muller Hinton broth-cation adjusted, 0.02% BSA, 0.2% acetic acid
Method in brief: as §1

For CC(C)C[C@@H](NC(=O)[C@H](N)CCCNC(=N)N)C(=O)N[C@H](CCCCN)C(=O)N[C@H](CCCNC(=N)N)C(=O)N[C@H](Cc1c[nH]c2ccccc12)C(=O)N[C@H](CCCNC(=N)N)C(=O)N[C@H](CC(C)C)C(=O)N[C@H](Cc1ccccc1)C(=O)N[C@H](CCCNC(=N)N)C(=O)N[C@H](CCCCN)C(=O)N[C@H](CCCNC(=N)N)C(=O)O [Chain306D] (H-[dR][dL][dK][dR][dW][dR][dL][dF][dR][dK][dR]-OH), the Minimum inhibitory concentration ([1]; Acinetobacter baumannii clinical strain 1) was 16, the Minimum inhibitory concentration ([1]; Acinetobacter baumannii clinical strain 2) was 32 and the Minimum inhibitory concentration ([1]; Acinetobacter baumannii clinical strain 3) was 16. The Minimum inhibitory concentration ([1]; Acinetobacter baumannii clinical strain 4) was 16, the Minimum inhibitory concentration ([1]; Acinetobacter baumannii clinical strain 5) was 8 and the Minimum inhibitory concentration ([2]; C. parapsilosis clinical yeast strain 1) was 8. For the same compound, the Minimum inhibitory concentration ([2]; C. parapsilosis clinical yeast strain 2) was 16, the Minimum inhibitory concentration ([2]; C. parapsilosis clinical yeast strain 3) was 16 and the Minimum inhibitory concentration ([2]; C. parapsilosis clinical yeast strain 4) was 4. The Minimum inhibitory concentration ([3]; Enterobacter cloacae clinical strain 1) was 64, the Minimum inhibitory concentration ([3]; Enterobacter cloacae clinical strain 2) was 64 and the Minimum inhibitory concentration ([3]; Enterobacter cloacae clinical strain 3) was 32. The Minimum inhibitory concentration ([3]; Enterobacter cloacae clinical strain 4) was 16, the Minimum inhibitory concentration ([3]; Enterobacter cloacae clinical strain 5) was 16 and the Minimum inhibitory concentration ([4]; Pseudomonas aeruginosa clinical strain 1) was 128. The Minimum inhibitory concentration ([4]; Pseudomonas aeruginosa clinical strain 2) was greater than 128, the Minimum inhibitory concentration ([4]; Pseudomonas aeruginosa clinical strain 3) was 128 and the Minimum inhibitory concentration ([4]; Pseudomonas aeruginosa clinical strain 4) was greater than 128. It also gave a Minimum inhibitory concentration ([4]; Pseudomonas aeruginosa clinical strain 5) of 128, a Minimum inhibitory concentration ([5]; Klebsiella pneumoniae clinical strain 1) of 128 and a Minimum inhibitory concentration ([5]; Klebsiella pneumoniae clinical strain 2) greater than 128. It also gave a Minimum inhibitory concentration ([5]; Klebsiella pneumoniae clinical strain 3) greater than 128, a Minimum inhibitory concentration ([5]; Klebsiella pneumoniae clinical strain 4) of 64 and a Minimum inhibitory concentration ([5]; Klebsiella pneumoniae clinical strain 5) of 64. It also gave a Minimum inhibitory concentration ([6]; Candida albicans clinical yeast strain 1) of 16, a Minimum inhibitory concentration ([6]; Candida albicans clinical yeast strain 2) of 8 and a Minimum inhibitory concentration ([6]; Candida albicans clinical yeast strain 3) of 8. The Minimum inhibitory concentration ([6]; Candida albicans clinical yeast strain 4) was 16, the Minimum inhibitory concentration ([6]; Candida albicans clinical yeast strain 5) was 16 and the Minimum inhibitory concentration ([7]; Serratia marcescens clinical strain 1) was greater than 128. It also gave a Minimum inhibitory concentration ([7]; Serratia marcescens clinical strain 2) greater than 128, a Minimum inhibitory concentration ([7]; Serratia marcescens clinical strain 3) greater than 128 and a Minimum inhibitory concentration ([7]; Serratia marcescens clinical strain 4) greater than 128. It also gave a Minimum inhibitory concentration ([7]; Serratia marcescens clinical strain 5) greater than 128, a Minimum inhibitory concentration ([8]; Staphylococcus aureus clinical strain 1) of 16 and a Minimum inhibitory concentration ([8]; Staphylococcus aureus clinical strain 2) of 32. It also gave a Minimum inhibitory concentration ([8]; Staphylococcus aureus clinical strain 3) of 32, a Minimum inhibitory concentration ([8]; Staphylococcus aureus clinical strain 4) of 16 and a Minimum inhibitory concentration ([8]; Staphylococcus aureus clinical strain 5) of 8. For the same compound, the Minimum inhibitory concentration ([9]; Escherichia coli clinical strain 1) was 1, the Minimum inhibitory concentration ([9]; Escherichia coli clinical strain 2) was 2 and the Minimum inhibitory concentration ([9]; Escherichia coli clinical strain 3) was 2. For the same compound, the Minimum inhibitory concentration ([9]; Escherichia coli clinical strain 4) was 2, the Minimum inhibitory concentration ([9]; Escherichia coli clinical strain 5) was 2 and the Minimum inhibitory concentration ([10]; C. glabrata clinical yeast strain 1) was 8. It also gave a Minimum inhibitory concentration ([10]; C. glabrata clinical yeast strain 2) of 8, a Minimum inhibitory concentration ([10]; C. glabrata clinical yeast strain 3) of 16 and a Minimum inhibitory concentration ([10]; C. glabrata clinical yeast strain 4) of 32. The Minimum inhibitory concentration ([11]; Streptococcus pneumoniae clinical strain 1) was 64, the Minimum inhibitory concentration ([11]; Streptococcus pneumoniae clinical strain 2) was 64 and the Minimum inhibitory concentration ([11]; Streptococcus pneumoniae clinical strain 3) was 64. For the same compound, the Minimum inhibitory concentration ([11]; Streptococcus pneumoniae clinical strain 4) was 128, the Minimum inhibitory concentration ([11]; Streptococcus pneumoniae clinical strain 5) was 64 and the Minimum inhibitory concentration [12] was 4. For the same compound, the Minimum inhibitory concentration [13] was 16, the Minimum inhibitory concentration ([14]; Proteus mirabilis clinical strain 1) was greater than 128 and the Minimum inhibitory concentration ([14]; Proteus mirabilis clinical strain 2) was greater than 128. It also gave a Minimum inhibitory concentration ([14]; Proteus mirabilis clinical strain 3) greater than 128, a Minimum inhibitory concentration ([14]; Proteus mirabilis clinical strain 4) greater than 128 and a Minimum inhibitory concentration ([14]; Proteus mirabilis clinical strain 5) greater than 128.
